Measurements: ChEMBL document CHEMBL5550205, “Discovery of a NCOA4 Degrader for Labile Iron-Dependent Ferroptosis Inhibition” (J Med Chem, 2024)
Active and inactive are the calls of the source. The calls are words filed in the database; no cut-off is given here.

Experiments:
[1] = test system: AML12; test: Protection against CCl4-induced ferroptosis in mouse AML12 cells assessed as reduction in MDA content at 200 to 1000 nM measured for 36 hrs; format: functional, cell-based; details: dose 200-1000 nM
[2] = test system: AML12; test: Downregulation of lipid hydroperoxide level in mouse AML12 cells at 200 nM measured for 36 hrs; format: functional, cell-based
[3] = test system: AML12; test: Protection against RSL3-induced ferroptosis in mouse AML12 cells assessed as increase in cell viability at 200 nM measured for 48 hrs by cell counting-lite 2.0 analysis; format: functional, cell-based
[4] = test system: AML12; test: Protection against CCl4-induced ferroptosis in mouse AML12 cells assessed as reduction in ptgs2 mRNA level at 200 to 1000 nM measured for 36 hrs by qRT-PCR analysis; format: functional, cell-based; details: dose 200-1000 nM
[5] = test system: Mus musculus; test: Inhibition of CCl4-induced ferroptosis in acute liver injury C57BL/6 mouse model assessed as reduction in necrosis at 10 to 30 mg/kg, ip pretreated with compound for 3 hrs followed by CCl4 induction and measured after 12 to 24 hrs by H and E staining based analysis; format: functional, organism-based; details: dose 10-30 mg/kg, time 15-27 hrs
[6] = test system: AML12; test: Downregulation of Free Fe2+ level in mouse AML12 cells by FerroOrange dye based laser scanning confocal microscopic analysis; format: functional, cell-based
[7] = test system: Mus musculus; test: Inhibition of CCl4-induced ferroptosis in acute liver injury C57BL/6 mouse model assessed as reduction in IL-6 level in serum at 10 to 30 mg/kg, ip pretreated with compound for 3 hrs followed by CCl4 induction and measured after 12 to 24 hrs by ELISA analysis; format: functional, organism-based; details: dose 10-30 mg/kg, time 15-27 hrs
[8] = test system: AML12; test: Protection against Brequinal-induced ferroptosis in mouse AML12 cells assessed as attenuation of Fe2+ level by fluorescence imaging analysis; format: functional, cell-based
[9] = test system: AML12; test: Protection against iFSP1-induced ferroptosis in mouse AML12 cells assessed as attenuation of Fe2+ level by fluorescence imaging analysis; format: functional, cell-based
[10] = test system: Mus musculus; test: Inhibition of CCl4-induced ferroptosis in acute liver injury C57BL/6 mouse model assessed as inhibition of ALT level at 10 to 30 mg/kg, ip pretreated with compound for 3 hrs followed by CCl4 induction and measured after 12 to 24 hrs; format: functional, organism-based; details: dose 10-30 mg/kg, time 15-27 hrs
[11] = test system: AML12; test: Inhibition of Ptgs2 mRNA expression in mouse AML12 cells measured for 36 hrs by qRT-PCR analysis; format: functional, cell-based; details: dose <= 10.0 µM
[12] = test system: AML12; test: Protection against Brequinal-induced ferroptosis in mouse AML12 cells assessed as increase in cell viability at 200 nM measured for 48 hrs by cell counting-lite 2.0 analysis; format: functional, cell-based
[13] = test system: AML12; test: Protection against Erastin-induced ferroptosis in mouse AML12 cells assessed as attenuation of Fe2+ level by fluorescence imaging analysis; format: functional, cell-based
[14] = test system: Mus musculus; test: Inhibition of CCl4-induced ferroptosis in acute liver injury C57BL/6 mouse model assessed as downregulation of FTH1 level at 10 to 30 mg/kg, ip pretreated with compound for 3 hrs followed by CCl4 induction and measured after 12 to 24 hrs by Western blot analysis; format: functional, organism-based; details: dose 10-30 mg/kg, time 15-27 hrs
[15] = test system: AML12; test: Upregulation of FTH1 level in mouse AML12 cells incubated for 24 hrs by Western blot analysis; format: functional, cell-based; details: dose <= 10.0 µM
[16] = test system: AML12; test: Protection against CCl4-induced ferroptosis in mouse AML12 cells assessed as […] at 200 nM measured for 48 hrs; format: functional, cell-based
[17] = target: von Hippel-Lindau disease tumor suppressor/Nuclear receptor coactivator 4 (Homo sapiens, UniProt P40337+Q13772); test: PROTAC activity at NCOA4/VHL in human HeLa cells assessed as induction of NCOA4 degradation measured for 24 hrs by Western blot analysis; format: cell-based
[18] = test system: Mus musculus; test: Inhibition of CCl4-induced ferroptosis in acute liver injury C57BL/6 mouse model assessed as decrease in IL-6 expression in liver at 10 to 30 mg/kg, ip pretreated with compound for 3 hrs followed by CCl4 induction and measured after 12 to 24 hrs by q-PCR analysis; format: functional, organism-based; details: dose 10-30 mg/kg, time 15-27 hrs
[19] = target: von Hippel-Lindau disease tumor suppressor/Nuclear receptor coactivator 4 (Mus musculus) (UniProt P40338+Q5U4H9); test: PROTAC activity at NCOA4/VHL in mouse AML12 cells assessed as effect on NCOA4 mRNA level at 0.12 to 10 uM incubated for 24 hrs by qRT-PCR analysis; format: cell-based; details: dose 0.12-10 µM
[20] = test system: Mus musculus; test: Inhibition of CCl4-induced ferroptosis in acute liver injury C57BL/6 mouse model assessed as reduction in hepatocyte damage at 10 to 30 mg/kg, ip pretreated with compound for 3 hrs followed by CCl4 induction and measured after 12 to 24 hrs by H and E staining based analysis; format: functional, organism-based; details: dose 10-30 mg/kg, time 15-27 hrs
[21] = test system: Mus musculus; test: Inhibition of CCl4-induced ferroptosis in acute liver injury C57BL/6 mouse model assessed as reduction in IL-1beta level in serum at 10 to 30 mg/kg, ip pretreated with compound for 3 hrs followed by CCl4 induction and measured after 12 to 24 hrs by ELISA analysis; format: functional, organism-based; details: dose 10-30 mg/kg, time 15-27 hrs
[22] = test system: AML12; test: Downregulation of MDA level in mouse AML12 cells measured for 36 hrs; format: functional, cell-based; details: dose <= 10.0 µM
[23] = test system: AML12; test: Protection against Erastin-induced ferroptosis in mouse AML12 cells assessed as increase in cell viability at 200 nM measured for 48 hrs by cell counting-lite 2.0 analysis; format: functional, cell-based
[24] = test system: AML12; test: Protection against CCl4-induced ferroptosis in mouse AML12 cells assessed as reduction in ROS production at 200 to 1000 nM measured for 36 hrs; format: functional, cell-based; details: dose 200-1000 nM
[25] = test system: AML12; test: Protection against RSL3-induced ferroptosis in mouse AML12 cells assessed as reduction in lipid peroxidation level at 200 nM measured for 48 hrs; format: functional, cell-based
[26] = test system: AML12; test: Protection against FINO2-induced ferroptosis in mouse AML12 cells assessed as increase in cell viability at 200 nM measured for 48 hrs by cell counting-lite 2.0 analysis; format: functional, cell-based
[27] = test system: AML12; test: Protection against CCl4-induced ferroptosis in mouse AML12 cells assessed as reduction in lipid peroxidation level at 200 to 1000 nM; format: functional, cell-based; details: dose 200-1000 nM

Chain of von Hippel-Lindau disease tumor suppressor/Nuclear receptor coactivator 4 (Mus musculus) (P40338 whole entry, looked up): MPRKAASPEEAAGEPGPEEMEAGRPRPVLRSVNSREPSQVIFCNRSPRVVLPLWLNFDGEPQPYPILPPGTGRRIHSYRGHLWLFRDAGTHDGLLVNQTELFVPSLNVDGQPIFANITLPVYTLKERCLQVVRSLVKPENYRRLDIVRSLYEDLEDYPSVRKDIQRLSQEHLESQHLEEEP
Chain of von Hippel-Lindau disease tumor suppressor/Nuclear receptor coactivator 4 (Mus musculus) (Q5U4H9 whole entry, looked up): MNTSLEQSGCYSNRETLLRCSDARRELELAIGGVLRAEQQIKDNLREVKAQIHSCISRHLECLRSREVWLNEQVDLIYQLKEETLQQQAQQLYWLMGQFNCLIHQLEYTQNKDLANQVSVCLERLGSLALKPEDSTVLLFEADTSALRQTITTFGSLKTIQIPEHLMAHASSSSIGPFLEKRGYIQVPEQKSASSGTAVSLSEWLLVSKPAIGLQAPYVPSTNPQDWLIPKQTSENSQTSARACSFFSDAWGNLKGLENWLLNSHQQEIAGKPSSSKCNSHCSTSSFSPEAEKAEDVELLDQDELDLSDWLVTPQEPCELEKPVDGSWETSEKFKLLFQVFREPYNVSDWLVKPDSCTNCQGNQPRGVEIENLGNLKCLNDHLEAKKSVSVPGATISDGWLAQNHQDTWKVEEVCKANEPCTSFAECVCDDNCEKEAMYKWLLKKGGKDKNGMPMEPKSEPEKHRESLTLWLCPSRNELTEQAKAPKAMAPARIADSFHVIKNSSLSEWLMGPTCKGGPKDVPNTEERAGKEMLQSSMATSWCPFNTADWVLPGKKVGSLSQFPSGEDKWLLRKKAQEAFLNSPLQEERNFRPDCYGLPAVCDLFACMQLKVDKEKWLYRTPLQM
Chain of von Hippel-Lindau disease tumor suppressor/Nuclear receptor coactivator 4 (P40337 whole entry): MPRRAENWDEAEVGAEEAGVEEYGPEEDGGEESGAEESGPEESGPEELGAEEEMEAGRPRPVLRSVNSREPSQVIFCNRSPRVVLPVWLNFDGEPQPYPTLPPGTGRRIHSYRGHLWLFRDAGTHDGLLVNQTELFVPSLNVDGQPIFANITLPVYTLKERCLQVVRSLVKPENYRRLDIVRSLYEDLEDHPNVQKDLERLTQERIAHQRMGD
Chain of von Hippel-Lindau disease tumor suppressor/Nuclear receptor coactivator 4 (Q13772 whole entry): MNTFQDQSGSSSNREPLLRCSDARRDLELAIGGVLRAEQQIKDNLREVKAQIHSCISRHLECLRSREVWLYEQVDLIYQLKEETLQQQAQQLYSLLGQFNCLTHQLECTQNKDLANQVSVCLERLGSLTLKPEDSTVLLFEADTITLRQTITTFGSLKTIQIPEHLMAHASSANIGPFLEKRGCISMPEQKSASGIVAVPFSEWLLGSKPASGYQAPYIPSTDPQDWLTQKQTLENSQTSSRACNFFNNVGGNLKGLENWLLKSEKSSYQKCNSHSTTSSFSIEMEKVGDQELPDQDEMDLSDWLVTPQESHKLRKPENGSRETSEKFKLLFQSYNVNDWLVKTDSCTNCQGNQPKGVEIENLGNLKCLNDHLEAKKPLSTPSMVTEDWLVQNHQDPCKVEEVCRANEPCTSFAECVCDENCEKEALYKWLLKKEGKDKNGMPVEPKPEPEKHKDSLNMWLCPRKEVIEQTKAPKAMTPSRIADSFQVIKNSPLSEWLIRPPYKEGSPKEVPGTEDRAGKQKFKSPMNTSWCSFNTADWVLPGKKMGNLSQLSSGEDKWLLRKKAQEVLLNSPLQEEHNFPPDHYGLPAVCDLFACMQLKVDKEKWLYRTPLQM

## Cc1ncsc1-c1ccc(CNC(=O)[C@@H]2C[C@@H](O)CN2C(=O)[C@H](NC(=O)CCCC(=O)NCCOCCOCCOCCOc2ccc3c(c2)CCN(c2cccc(-c4nc5ccc(N6CCN(C)CC6)cc5[nH]4)c2)C3)C(C)(C)C)cc1
[1]
  Activity: Active
[2]
  Activity: Active
[3]
  Activity: Active
[4]
  Activity: Active
[5]
  inhibition: Active
[6]
  Activity: Active
[7]
  inhibition: Active
[8]
  Activity: Active
[9]
  Activity: Active
[10]
  inhibition: Active
[11]
  inhibition: Dose-Dependent Effect
[12]
  Activity: Active
[13]
  Activity: Active
[14]
  inhibition: Active
[15]
  Activity: Dose-Dependent Effect
[16]
  Activity: Active
[17]
  DC50: 3 nM
[18]
  inhibition: Active
[19]
  Activity: Active
[20]
  inhibition: Active
[21]
  inhibition: Active
[22]
  Activity: Dose-Dependent Effect
[23]
  Activity: Active
[24]
  Activity: Active
[25]
  Activity: Active
[26]
  Activity: Active
[27]
  Activity: Active
